Test systems include A549; COLO 205; HOP-62; HT-29; SF-268; HL-60; A498; UACC-257; NCI/ADR-RES; Hs-578T; SN12C; SNB-75; Malme-3M; PC-3; MDA-N; CAKI-1; KM12; LOX IMVI.
Holding throughout (assay): inhibition of tumour cell growth, NCI panel, 48 h

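These data come from cells grown in 96-well plates and exposed to compound for 48 hours at five concentrations. At the GI50, growth is halved.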 The source made the active and inactive calls. No stated cut-off is given here; in the data, active = GI50 up to about 1.1 µM and inactive = higher.

Consider `O=C(C=P(c1ccccc1)(c1ccccc1)c1ccccc1)c1ccccc1-c1ccccc1C(=O)C=P(c1ccccc1)(c1ccccc1)c1ccccc1`, for which the GI50 with A549 is 0.0128 µM (active); in the experiment on COLO 205, 0.0103 µM (active); with HOP-62, 0.0311 µM (active); in the experiment with HT-29, 0.0236 µM (active); in the experiment with SF-268, 0.0351 µM (active); in the experiment with HL-60, < 0.01 µM (active). Further, the GI50 in the experiment on A498 is 0.0264 µM (active); with UACC-257, < 0.01 µM (active); in the experiment with NCI/ADR-RES it was 0.373 µM (active); in the experiment on Hs-578T it was 0.0319 µM (active); with SN12C it was 0.0193 µM (active); in the experiment on SNB-75, 0.0206 µM (active). Besides, the GI50 is < 0.01 µM (active) in the experiment with Malme-3M; < 0.01 µM (active) in the experiment with PC-3; 0.0229 µM (active) in the experiment on MDA-N; 0.163 µM (active) in the experiment on CAKI-1; < 0.01 µM (active) with KM12; 0.018 µM (active) in the experiment on LOX IMVI.

On to `O=C1c2cccc3cc([N+](=O)[O-])cc(c23)C(=O)N1c1ccc(OCCN2CCCC2)cc1`, for which the GI50 is 3.3 µM (inactive) in the experiment on A549; 9.46 µM (inactive) with COLO 205; 30.5 µM (inactive) in the experiment with HOP-62; 11.7 µM (inactive) with HT-29; 22 µM (inactive) in the experiment with SF-268; 10.8 µM (inactive) in the experiment on HL-60. Also, the GI50 in the experiment with A498 is 12.4 µM (inactive); in the experiment on UACC-257 it was 16.8 µM (inactive); in the experiment on NCI/ADR-RES, 32.5 µM (inactive); in the experiment on Hs-578T it was 24.9 µM (inactive); in the experiment on SN12C, > 100 µM (inactive); with SNB-75, 22 µM (inactive). The GI50 in the experiment with Malme-3M is 15 µM (inactive); in the experiment on PC-3, 22.2 µM (inactive); in the experiment with MDA-N it was 30.8 µM (inactive); with CAKI-1, > 100 µM (inactive); in the experiment on KM12 it was 22.2 µM (inactive); in the experiment with LOX IMVI, 10.8 µM (inactive).

Consider `COc1ccccc1/C=C\C(=O)C1COCN1` (stereo unspecified), for which the GI50 with A549 was 23.1 µM (inactive); in the experiment on COLO 205, 6.35 µM (inactive); in the experiment on HOP-62, 21.4 µM (inactive); in the experiment on HT-29 it was 6.35 µM (inactive); in the experiment with SF-268 it was 21 µM (inactive); with HL-60, 19 µM (inactive). Moreover, the GI50 is 18.1 µM (inactive) in the experiment with UACC-257; 15.2 µM (inactive) in the experiment with NCI/ADR-RES; 16.3 µM (inactive) in the experiment with Hs-578T; 16.4 µM (inactive) in the experiment on SN12C; 18.6 µM (inactive) in the experiment with SNB-75; 19.3 µM (inactive) in the experiment with Malme-3M. The GI50 in the experiment on PC-3 was 13.2 µM (inactive); with CAKI-1, 18.3 µM (inactive); with KM12, 4.39 µM (inactive); in the experiment with LOX IMVI it was 4.83 µM (inactive).

With `COc1cc2c(c(OC)c1OC)C(=O)[C@H]1OC(=O)N[C@@H]21`, the GI50 with A549, in the experiment with COLO 205, in the experiment on HOP-62, with HT-29, in the experiment with SF-268 and with HL-60 was > 100 µM (inactive) throughout. In addition, the GI50 in the experiment with A498, in the experiment with UACC-257, in the experiment on NCI/ADR-RES, in the experiment on Hs-578T, in the experiment with SN12C and in the experiment with SNB-75 was > 100 µM (inactive) in each case. Also, the GI50 with PC-3, in the experiment with CAKI-1, in the experiment on KM12 and in the experiment with LOX IMVI was > 100 µM (inactive) each time.

As to `CC(=O)c1c2c(cc3c1CC1(C3)Cc3cc4c(c(C(=O)O)c3C1)CCCC4)CCCC2.CC(N)c1ccccc1` (stereo unspecified), the GI50 is 30.2 µM (inactive) in the experiment with A549; 27.9 µM (inactive) in the experiment on COLO 205; 21.6 µM (inactive) in the experiment with HOP-62; 34.1 µM (inactive) in the experiment with HT-29; 38.7 µM (inactive) with SF-268; 25.5 µM (inactive) in the experiment on HL-60. Besides, the GI50 was 30.9 µM (inactive) in the experiment with UACC-257; 40.1 µM (inactive) in the experiment with NCI/ADR-RES; 36.6 µM (inactive) in the experiment with Hs-578T; 30.7 µM (inactive) with SN12C; 39.7 µM (inactive) in the experiment with SNB-75; 33.4 µM (inactive) with Malme-3M. For the same compound, the GI50 with PC-3 was 39.7 µM (inactive); in the experiment with MDA-N it was 42.1 µM (inactive); in the experiment on CAKI-1 it was 33.4 µM (inactive); in the experiment with KM12, 27 µM (inactive); with LOX IMVI, 35.5 µM (inactive).

As for `COc1cc(OC)c(/C=N\Nc2nc3ccccc3c(=O)n2-c2ccccc2)c(OC)c1`, the GI50 in the experiment on A549 is 31.4 µM (inactive); in the experiment with COLO 205, 45.3 µM (inactive); in the experiment on HOP-62, 19.4 µM (inactive); with HT-29, 24.5 µM (inactive); in the experiment with SF-268, 34.9 µM (inactive); in the experiment on HL-60, 33 µM (inactive). For the same compound, the GI50 is 11.8 µM (inactive) in the experiment on A498; 27.5 µM (inactive) with UACC-257; 19.9 µM (inactive) with NCI/ADR-RES; 30.7 µM (inactive) with SN12C; 24.9 µM (inactive) with SNB-75; 28.1 µM (inactive) with Malme-3M. Also, the GI50 is 26.3 µM (inactive) in the experiment with PC-3; 17.4 µM (inactive) in the experiment with MDA-N; 16 µM (inactive) with CAKI-1; > 31.6 µM (inactive) in the experiment on KM12; 23.2 µM (inactive) in the experiment with LOX IMVI.

`CC(C)=C/C(CC(O)(C(F)(F)F)C(F)(F)F)=N\O`: the GI50 in the experiment on A549, in the experiment on COLO 205, in the experiment on HOP-62, in the experiment on HT-29, in the experiment with SF-268 and in the experiment on HL-60 was > 100 µM (inactive) each time. Besides, the GI50 in the experiment on A498 is 50.9 µM (inactive); in the experiment on UACC-257 it was > 100 µM (inactive); with NCI/ADR-RES, > 100 µM (inactive); in the experiment with Hs-578T it was > 100 µM (inactive); in the experiment on SN12C it was > 100 µM (inactive); in the experiment on SNB-75 it was > 100 µM (inactive). In addition, the GI50 in the experiment with Malme-3M, with KM12 and with LOX IMVI was > 100 µM (inactive) throughout.

As to `C=C(C)CCC1C=[N+]([O-])OC(C)(C)C1(C)C` (stereo unspecified), the GI50 in the experiment with A549 was 49.3 µM (inactive); in the experiment with COLO 205, > 100 µM (inactive); in the experiment on HOP-62 it was > 100 µM (inactive); with HT-29, > 100 µM (inactive); with SF-268 it was > 100 µM (inactive); with HL-60, 30.1 µM (inactive). Further, the GI50 in the experiment on A498, with UACC-257, in the experiment with NCI/ADR-RES, in the experiment on Hs-578T, with SN12C and in the experiment on SNB-75 was > 100 µM (inactive) throughout. For the same compound, the GI50 in the experiment on MDA-N is > 100 µM (inactive); in the experiment on CAKI-1 it was > 100 µM (inactive); in the experiment on KM12 it was > 100 µM (inactive); in the experiment with LOX IMVI, 80 µM (inactive).

Regarding `Cc1ccc(CNc2ccc(Br)cc2)cc1`, the GI50 is 23.8 µM (inactive) in the experiment with A549; 16.5 µM (inactive) with COLO 205; 83.2 µM (inactive) in the experiment with HOP-62; 28.2 µM (inactive) in the experiment with HT-29; 31.9 µM (inactive) in the experiment with SF-268; 25.2 µM (inactive) in the experiment on HL-60. Further, the GI50 is 29.3 µM (inactive) in the experiment on A498; 24.9 µM (inactive) in the experiment on UACC-257; 29.4 µM (inactive) with NCI/ADR-RES; 70.6 µM (inactive) with Hs-578T; 20.9 µM (inactive) in the experiment on SN12C; 37.3 µM (inactive) in the experiment on SNB-75. For the same compound, the GI50 with Malme-3M was 21.5 µM (inactive); in the experiment with PC-3, 31.6 µM (inactive); in the experiment on MDA-N, 25.4 µM (inactive); in the experiment on CAKI-1, 31.6 µM (inactive); in the experiment on KM12, 16.3 µM (inactive); in the experiment with LOX IMVI, 2.01 µM (inactive).

The record behind these values is ChEMBL document CHEMBL1201862, “PubChem BioAssay data set” (2004).
